Holding throughout (assay): growth of human tumour cells (NCI), 48 h
The test system of assay [1] is HOP-18.
Assay [2] concerns LXFL 529.
For assay [3], the system named is DMS-114.
Assay [4] concerns RPMI-8226.
Assay [5] concerns RXF 393.
Assay [6] relates to TK-10.
For assay [7], the system named is HOP-92.
Assay [8] concerns LOX IMVI.
In assay [9] the test system is ACHN.
For assay [10], the system named is SF-268.
Assay [11] deals with NCI-H226.
Assay [12] relates to MOLT-4.
Assay [13] has as its system SR.
In assay [14] the test system is M14.
Assay [15] concerns HCT-116.
Assay [16] relates to DMS-273.
In assay [17] the test system is SW-620.
In assay [18] the test system is CAKI-1.
In assay [19] the test system is DLD-1.
In assay [20] the test system is MDA-MB-231.

Structures are written as SMILES.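 Assay format: 96-well plates, 48-hour exposure. GI50 = concentration required for 50% inhibition of growth.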 Activity calls are given as the source filed them. Cut-off read from the data, not from the text of the source: active = GI50 up to about 1.1 µM and inactive = higher.

Turning to `O=C(O)C(Cl)(Cl)Cl`, the GI50 is 80 µM (inactive) in assay [1]; > 100 µM (inactive) in assay [2]; > 100 µM (inactive) in assay [3]; > 100 µM (inactive) in assay [4]; > 100 µM (inactive) in assay [5]; > 100 µM (inactive) in assay [6]. The GI50 in assay [7], in assay [8], in [9], in [10], in assay [11] and in assay [12] was > 100 µM (inactive) throughout. Besides, the GI50 in [13], in [14], in assay [15], in assay [16], in assay [17] and in assay [18] was > 100 µM (inactive) throughout. Besides, the GI50 in [19] is > 100 µM (inactive).
Consider `CC(C)Cc1ccc(C(C)C(=O)N2CCN(/C=C/c3ccccc3)CC2)cc1` (configuration not stated), for which the GI50 was 21.5 µM (inactive) in assay [1]; 10.8 µM (inactive) in [3]; 5.04 µM (inactive) in assay [4]; 14.1 µM (inactive) in [5]; 13.1 µM (inactive) in assay [7]; 18.7 µM (inactive) in [8]. Moreover, the GI50 is 16.3 µM (inactive) in assay [10]; 12.6 µM (inactive) in assay [11]; 6.15 µM (inactive) in assay [12]; 13.4 µM (inactive) in assay [15]; 11.4 µM (inactive) in [16]; 15.6 µM (inactive) in [17]. Further, the GI50 in assay [19] was 13.7 µM (inactive).
For `CC(C)Cc1cccc(C(C)C)c1NC(=O)CCC(=O)N/N=C1\C(=N/NC(=O)CCC(=O)Nc2c(C(C)C)cccc2C(C)C)C(c2ccc3c(c2)OCO3)Oc2ccccc21` (configuration not stated), the GI50 is 43.6 µM (inactive) in [2]; 42.6 µM (inactive) in assay [3]; 59.2 µM (inactive) in assay [4]; 34.9 µM (inactive) in [5]; > 100 µM (inactive) in [6]; > 100 µM (inactive) in [7]. In addition, the GI50 in assay [8] is 44.5 µM (inactive); in [9] it was 83 µM (inactive); in [10], 67.8 µM (inactive); in assay [11], > 100 µM (inactive); in assay [12] it was 57.3 µM (inactive); in assay [13] it was 55.7 µM (inactive). Besides, the GI50 in assay [14] was > 100 µM (inactive); in assay [15], 61.2 µM (inactive); in [16], 76.9 µM (inactive); in [17], 46 µM (inactive); in assay [18] it was 53.2 µM (inactive); in assay [19] it was 40.8 µM (inactive).
On to `CC(C)(C)OC(=O)C1=C(C(=O)OC(C)(C)C)SC2(S1)C(C(=O)OC(C)(C)C)=C(C(=O)OC(C)(C)C)Sc1c2ssc1=O`, for which the GI50 was 48.1 µM (inactive) in assay [4]; 45.2 µM (inactive) in assay [5]; > 100 µM (inactive) in assay [6]; > 100 µM (inactive) in assay [7]; 34.7 µM (inactive) in [8]; 44.1 µM (inactive) in assay [9]. Moreover, the GI50 is 60.1 µM (inactive) in assay [10]; 7.67 µM (inactive) in [12]; 95.7 µM (inactive) in assay [14]; 83.8 µM (inactive) in [20]; 47.3 µM (inactive) in assay [15]; 26.4 µM (inactive) in [17]. Moreover, the GI50 in assay [18] was 83.8 µM (inactive).
In the case of `COC(=O)c1ccc(/N=N/N(C)COc2ccc(Br)cc2)cc1`, the GI50 in assay [1] is > 100 µM (inactive); in assay [3] it was 55.7 µM (inactive); in [4], 24.5 µM (inactive); in assay [5], 80.4 µM (inactive); in assay [7], > 53 µM (inactive); in assay [8], 49.2 µM (inactive). In addition, the GI50 in assay [10] was > 75.5 µM (inactive); in assay [11] it was > 100 µM (inactive); in assay [12], 26.6 µM (inactive); in assay [15] it was > 100 µM (inactive); in [16], > 89.9 µM (inactive); in assay [17], > 90.2 µM (inactive). The figures for the GI50 in assay [18] and in assay [19] were > 57.7 µM (inactive) and > 54.6 µM (inactive), respectively.
As to `CCOc1ccc(C2=C(Cl)c3cc(OC)c(OC)cc3C2Cl)cc1` (configuration not stated), the GI50 in assay [1] was 42.8 µM (inactive); in [2], 26.8 µM (inactive); in [3], 18.6 µM (inactive); in [4], 21.3 µM (inactive); in assay [6] it was 79.8 µM (inactive); in [7] it was 25.4 µM (inactive). The GI50 is 19.5 µM (inactive) in assay [8]; 31.6 µM (inactive) in [9]; 59.6 µM (inactive) in assay [10]; 30.8 µM (inactive) in assay [11]; 19.5 µM (inactive) in [12]; 35.8 µM (inactive) in [14]. The GI50 in assay [16] was 37.9 µM (inactive); in assay [17], 29.2 µM (inactive); in assay [18], 46.1 µM (inactive); in [19], 37.6 µM (inactive).
As to `CCCC(=O)OCC1OC(n2ccc(N)nc2=O)C(OC(=O)CCC)C1OC(=O)CCC` (configuration not stated), the GI50 is 1 µM (active) in assay [1]; > 100 µM (inactive) in [3]; > 100 µM (inactive) in assay [4]; > 58.7 µM (inactive) in assay [5]; > 45.1 µM (inactive) in assay [7]; 3.03 µM (inactive) in assay [8]. Further, the GI50 was > 42.4 µM (inactive) in assay [10]; 88.5 µM (inactive) in assay [11]; 0.33 µM (active) in assay [12]; 33.3 µM (inactive) in [15]; 36.7 µM (inactive) in [16]; > 100 µM (inactive) in assay [17]. For the same molecule, the figures for the GI50 in assay [18] and in assay [19] were 5.25 µM (inactive) and > 100 µM (inactive), respectively.
With `CC(C)(C)OC(=O)NCCc1ccc(N)cc1`, the GI50 in assay [4] was 58.6 µM (inactive); in [6], > 100 µM (inactive); in assay [8], > 100 µM (inactive); in assay [9] it was > 100 µM (inactive); in assay [10], > 100 µM (inactive); in [12] it was 37.2 µM (inactive). For the same molecule, the GI50 in assay [13] was 55.6 µM (inactive); in assay [14] it was > 100 µM (inactive); in assay [20] it was > 100 µM (inactive); in assay [15], > 100 µM (inactive); in assay [17], > 100 µM (inactive).
Consider `CC12CCC(C(=O)N3CC=CCC3)(OC1=O)C2(C)C` (configuration not stated), for which the GI50 in assay [1], in assay [3], in [4], in assay [5], in assay [7] and in assay [8] was > 100 µM (inactive) throughout. Moreover, the GI50 in assay [10], in assay [11], in assay [12], in assay [15], in [16] and in assay [17] was > 100 µM (inactive) in each case. For the same molecule, the GI50 in [18] and in assay [19] was > 100 µM (inactive) throughout.
